Read-outs that look alike come from different tables or passages of the source.
Legend:
MCF-7 cells [1] = test: MTS cell viability assay, MCF-7 cells; format: cell-based, human; settings: for IC50: Homo sapiens
Description: (§1) To determine the optimal working concentration, dose-effect curves were made for each compound in the range of concentrations between 6.25 and 400 μM.
(§2) LoVo (human colorectal adenocarcinoma) human cancer cell line and HUVEC normal cells were purchased from American Type Culture Collection (ATCC). The MCF-7 human breast adenocarcinoma cell line was provided from European Collection of Authenticated Cell Cultures (ECACC). HUVEC normal cells, isolated from the vascular endothelium of an umbilical cord, were used as a reference. Adherent cells were maintained in culture in Dulbecco’s modified Eagle medium/nutrient mixture F-12 (DMEM:F12) with 2 mM of L-glutamine, 10% fetal bovine serum, 100 units/mL of penicillin and 100 μg/mL of streptomycin, and incubated at 37 °C in a 5% CO2-humidified atmosphere. After 24 h, adherent cells were treated with different concentrations of the compounds for different periods of time. Cis-Pt and DOX, conventional oncology drugs used in cancer treatments, can be used as a positive control of the experiments. […] Then, cells were detached with a nonenzymatic solution of phosphate-buffered saline (PBS)/1 mM EDTA and washed twice in PBS.
(§3) The study utilized a colorimetric assay based on MTS (chemically known as 3-(4,5-dimethylthiazol-2-yl)-5-(3-carboxymethoxyphenyl)-2-(4-sulfophenyl)-2H-tetrazolium) and called CellTiter 96 Aqueous One Solution Cell proliferation Assay (Promega, Madison, WI, USA) in order to measure cell viability. The assay was performed in triplicate in 96-well microtiter plates with a flat bottom (Falcon). A number of 1 × 10^4 cells/well were cultured in 100 μL for 24 h, culture supernatants were discarded, and then cells were treated for 24 and 48 h with increasing concentrations of the tested compound. After the end of the incubation time, 20 μL of the reagent containing MTS and PES (phenazine ethosulfate) was added in each well. Plates were incubated for 4 h at 37 °C, with mild agitation every 15 min. The reduction in the tetrazolium compound to formazan was spectrophotometrically measured at λ = 492 nm using a Dynex plate reader (DYNEX Technologies MRS, Chantilly, VA, USA). The percentage of viability compared to untreated cells (considered 100% viable) was calculated with the formula:(1) Cell viability (%)=Absorbance treated cells−Absorbance culture medium/Absorbance untreated cells−Absorbance culture medium×100
(§4) The cell viability compared was calculated and data were expressed as a mean ± standard deviation (SD) of the experiments and obtained in triplicate (n = 3).

MCF-7 cells [2] = test: Apoptosis assay (Annexin V-FITC/PI flow cytometry), MCF-7; format: cell-based, human
Description: (§5) Two reference concentrations, 5 μM and 50 μM, and two distinct treatment durations, 24 and 48 h, were employed to assess the influence of the test compounds on apoptosis in both normal and tumor cells. […] HUVEC cells were exposed to both drugs.
(§6) The apoptosis assay was performed according to the manufacturer’s instructions using the Annexin V-FITC kit (BD Biosciences, San Jose, CA, USA). Cells untreated and treated with the experimental compound were suspended in a cold binding buffer. The percentages of apoptotic cells were determined by double staining with Annexin V-FITC/PI. In each tube was added 400 μL of Annexin V binding buffer and the 5000 cells/sample for 15 min in the dark at room temperature. The cells were analyzed using a FACSCantoII flow-cytometer (Becton Dickinson—BD, La Jolla, CA, USA). The analysis was performed using DIVA 6.2 software to discriminate viable cells (FITC-PI-) from necrotic cells (FITC + PI+), and early apoptosis (FITC + PI) from late apoptosis.

HUVEC cells = test: Apoptosis assay (Annexin V-FITC/PI flow cytometry), HUVEC; format: cell-based, human
Description: as §5, §6

Daphnia magna = Daphnia magna toxicity assay; format: in vivo; settings: for Maximum Average L% (lethality): up to 200 µM
Description: (§7) The Daphnia magna bioassay results are presented in Table 3 as the maximum average percentage of lethality (L%) registered for each compound and the median lethal concentration (LC50) if the values permitted its calculation.
(§8) Daphnia magna Straus is parthenogenetically maintained at ‘Carol Davila’ University’s Department of Pharmaceutical Botany and Cell Biology. The culture was consistently maintained at a temperature of 25 °C, with a 16-h light and 8-h dark photoperiod. To ensure consistency, young daphnids were carefully chosen based on their size and kept in an artificial medium for 24 h prior to the assessment. The bioassay involved 10 daphnids per replicate, using tissue culture plates with 12 wells from Greiner Bio-One. The experimental procedure followed the protocol described in previous studies.
(§9) Each determination was carried out in duplicate.

LoVo cells [3] = test: MTS cell viability assay, LoVo cells; format: cell-based, human
Description: as §1, §2, §3, §4

LoVo cells [4] = test: Apoptosis assay (Annexin V-FITC/PI flow cytometry), LoVo; format: cell-based, human
Description: as §5, §6

HUVEC normal cells = test: MTS cell viability assay, HUVEC normal cells; format: cell-based, human
Description: as §1, §2, §3, §4

[5] = Daphnia magna toxicity assay; format: in vivo; settings: Daphnia magna, in vivo; 48 h
Description: as §7, §8, §9

[6] = MCF7, read-out: IC50 (48 h) MCF-7, 48 h exposure
[7] = MCF7, 24 h exposure, read-out: IC50 (24 h) MCF-7
[8] = Homo sapiens, LoVo, read-out: IC50 (48 h) LoVo, 48 h exposure
[9] = Homo sapiens, LoVo, 24 h exposure, read-out: IC50 (24 h) LoVo
[10] = Homo sapiens, HUVEC, read-out: IC50 (48 h) HUVEC, 48 h exposure
[11] = Homo sapiens, HUVEC, 24 h exposure, read-out: IC50 (24 h) HUVEC

IC50 (MCF-7 cells [1]; [6]) [µM]	IC50 (MCF-7 cells [1]; [7]) [µM]	IC50 (LoVo cells [3]; [8]) [µM]	IC50 (LoVo cells [3]; [9]) [µM]	SMILES	Total Apoptosis (%) 24 h MCF-7 (MCF-7 cells [2]; 5 μM) [%]	Total Apoptosis (%) 48 h MCF-7 (MCF-7 cells [2]; 5 μM) [%]	Total Apoptosis (%) 24 h MCF-7 (MCF-7 cells [2]; 50 μM) [%]	Total Apoptosis (%) 48 h MCF-7 (MCF-7 cells [2]; 50 μM) [%]	Total Apoptosis (%) 24 h HUVEC (HUVEC cells; 5 μM) [%]	Total Apoptosis (%) 48 h HUVEC (HUVEC cells; 5 μM) [%]	Total Apoptosis (%) 24 h HUVEC (HUVEC cells; 50 μM) [%]	Total Apoptosis (%) 48 h HUVEC (HUVEC cells; 50 μM) [%]	Maximum Average L% (lethality) (Daphnia magna; 24 h) [%]	Maximum Average L% (lethality) (Daphnia magna; 48 h) [%]	Total Apoptosis (%) 24 h LoVo (LoVo cells [4]; 5 μM) [%]	Total Apoptosis (%) 48 h LoVo (LoVo cells [4]; 5 μM) [%]	Total Apoptosis (%) 24 h LoVo (LoVo cells [4]; 50 μM) [%]	Total Apoptosis (%) 48 h LoVo (LoVo cells [4]; 50 μM) [%]	IC50 (HUVEC normal cells; [10]) [µM]	IC50 (HUVEC normal cells; [11]) [µM]	other results
> 400	> 400	80.7	> 400	Nc1nnc(-c2ccccc2CSc2ccccc2)s1 [2f, 5-[2-(Phenylthiomethyl)phenyl]-1,3,4-thiadiazol-2-amine]	22.0	44.0	12.6	45.0	19.9	15.9	18.6	14.6	5	10	14.9	27.0	8.2	17.4	> 400	> 400	–
23.3	43.3	2.44	18.1	Nc1nnc(-c2ccccc2CS(=O)(=O)c2ccccc2)s1 [2g, 5-[2-(Benzenesulfonylmethyl)phenyl]-1,3,4-thiadiazol-2-amine]	18.7	42.2	19.7	44.5	19.0	14.7	19.3	14.1	0	20	13.6	23.6	19.6	24.8	44.6	> 400	lethality percentages in the Daphnia test (Daphnia magna; even at the highest concentration of 200 µM): below 20%
87.4	129	–	–	COc1cccc2c1C(=O)c1c(O)c3c(c(O)c1C2=O)C[C@@](O)(C(=O)CO)C[C@@H]3O[C@H]1C[C@H](N)[C@H](O)[C@H](C)O1 [DOX, Doxorubicin, reference compound]	–	33.6	19.0	49.0	15.2	9.5	18.6	–	–	–	–	–	–	–	1.35	1.03	–

The next lines start with the compound.

SMILES	IC50 (MCF-7 cells [1]; [6]) [µM]	IC50 (MCF-7 cells [1]; [7]) [µM]	IC50 (LoVo cells [3]; [8]) [µM]	IC50 (LoVo cells [3]; [9]) [µM]	Total Apoptosis (%) 24 h MCF-7 (MCF-7 cells [2]; 5 μM) [%]	Total Apoptosis (%) 48 h MCF-7 (MCF-7 cells [2]; 5 μM) [%]	Total Apoptosis (%) 24 h MCF-7 (MCF-7 cells [2]; 50 μM) [%]	Total Apoptosis (%) 48 h MCF-7 (MCF-7 cells [2]; 50 μM) [%]	Total Apoptosis (%) 24 h HUVEC (HUVEC cells; 5 μM) [%]	Total Apoptosis (%) 48 h HUVEC (HUVEC cells; 5 μM) [%]	Total Apoptosis (%) 24 h HUVEC (HUVEC cells; 50 μM) [%]	Total Apoptosis (%) 48 h HUVEC (HUVEC cells; 50 μM) [%]	Maximum Average L% (lethality) (Daphnia magna; 24 h) [%]	Maximum Average L% (lethality) (Daphnia magna; 48 h) [%]	Total Apoptosis (%) 24 h LoVo (LoVo cells [4]; 5 μM) [%]	Total Apoptosis (%) 48 h LoVo (LoVo cells [4]; 5 μM) [%]	Total Apoptosis (%) 24 h LoVo (LoVo cells [4]; 50 μM) [%]	Total Apoptosis (%) 48 h LoVo (LoVo cells [4]; 50 μM) [%]	IC50 (HUVEC normal cells; [10]) [µM]	IC50 (HUVEC normal cells; [11]) [µM]	other results
Nc1nnc(-c2ccccc2)s1 [2a, 5-Phenyl-1,3,4-thiadiazol-2-amine]	> 400	> 400	62.2	204	11.8	24.4	9.8	24.7	12.8	14.7	15.0	18.4	0	40	9.0	17.6	8.9	13.7	83.8	> 400	–
Cc1ccc(-c2nnc(N)s2)cc1 [2b, 5-(4-Methylphenyl)-1,3,4-thiadiazol-2-amine]	> 400	> 400	124	134	8.0	16.7	8.4	25.4	16.7	15.7	13.6	16.6	10	55	6.9	14.0	6.3	12.3	70.9	> 400	LC50 at 48 h [5]: 144 µM
Nc1nnc(-c2ccc(O)c(O)c2)s1 [2c, 5-(3,4-Dihydroxyphenyl)-1,3,4-thiadiazol-2-amine]	398	> 400	117	163	11.7	26.6	7.6	15.1	16.6	15.6	12.1	12.1	0	25	7.5	13.0	6.8	13.8	155	> 400	viability of MCF-7 cells (MCF-7 cells [1]; 48-h period): less than 50%
COc1cc(-c2nnc(N)s2)cc(OC)c1OC [2e, 5-(3,4,5-Trimethoxyphenyl)-1,3,4-thiadiazol-2-amine]	> 400	> 400	79.2	108	9.1	24.6	14.9	34.2	26.3	13.1	24.3	15.5	0	5	4.9	14.3	16.4	19.9	300	> 400	–
N.N.[Cl][Pt][Cl] [Cis-Pt, Cisplatin, reference compound]	–	–	–	–	–	–	–	–	15.7	14.8	21.7	17.4	–	–	15.7	31.6	24.5	38.7	–	–	IC50 (LoVo cells [3]; 24 h exposure, read-out: IC50 (24 h) LoVo): 12.8 µM; IC50 (LoVo cells [3]; read-out: IC50 (48 h) LoVo, 48 h exposure): 80.1 µM; IC50 (HUVEC normal cells; 24 h exposure, read-out: IC50 (24 h) HUVEC): 11.1 µM; IC50 (HUVEC normal cells; read-out: IC50 (48 h) HUVEC, 48 h exposure): 8.23 µM
